From PubChem BioAssay (NCI)
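Following 48 hours of exposure in 96-well plates, responses at five concentrations were used to interpolate endpoints linearly. At the TGI there is no net growth.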

Experiments:
Assay in all cases: inhibition of tumour cell growth, NCI panel, 48 h
T-47D breast = tested on: T-47D breast
NCI-H522 lung = tested on: NCI-H522 lung
DU-145 prostate = tested on: DU-145 prostate
SN12C renal = tested on: SN12C renal
M14 melanoma = tested on: M14 melanoma
SNB-75 CNS = tested on: SNB-75 CNS
NCI-H23 lung = tested on: NCI-H23 lung
A498 renal = tested on: A498 renal
KM12 colon = tested on: KM12 colon
MALME-3M melanoma = tested on: MALME-3M melanoma
MDA-N = tested on: MDA-N
SK-MEL-28 melanoma = tested on: SK-MEL-28 melanoma
HOP-62 NSCLC = tested on: HOP-62 NSCLC
TK-10 renal = tested on: TK-10 renal
LOX IMVI melanoma = tested on: LOX IMVI melanoma
OVCAR-3 ovarian = tested on: OVCAR-3 ovarian
UO-31 renal = tested on: UO-31 renal
MCF7 breast = tested on: MCF7 breast
HCT-116 colon = tested on: HCT-116 colon
HL-60(TB) leukemia = tested on: HL-60(TB) leukemia
SF-268 CNS = tested on: SF-268 CNS
SR leukemia = tested on: SR leukemia
HOP-92 NSCLC = tested on: HOP-92 NSCLC
786-0 renal = tested on: 786-0 renal
SW-620 colon = tested on: SW-620 colon
NCI/ADR-RES ovarian = tested on: NCI/ADR-RES ovarian
MDA-MB-231 breast = tested on: MDA-MB-231 breast
SNB-19 CNS = tested on: SNB-19 CNS
A549 NSCLC = tested on: A549 NSCLC
RPMI-8226 leukemia = tested on: RPMI-8226 leukemia
EKVX NSCLC = tested on: EKVX NSCLC
CAKI-1 renal = tested on: CAKI-1 renal
CCRF-CEM leukemia = tested on: CCRF-CEM leukemia
HT29 colon = tested on: HT29 colon
UACC-62 melanoma = tested on: UACC-62 melanoma
NCI-H226 lung = tested on: NCI-H226 lung
HCC-2998 colon = tested on: HCC-2998 colon
SK-MEL-2 melanoma = tested on: SK-MEL-2 melanoma
SK-OV-3 ovarian = tested on: SK-OV-3 ovarian
OVCAR-8 ovarian = tested on: OVCAR-8 ovarian
IGROV1 ovarian = tested on: IGROV1 ovarian
NCI-H460 lung = tested on: NCI-H460 lung
RXF 393 renal = tested on: RXF 393 renal
K-562 leukemia = tested on: K-562 leukemia
UACC-257 melanoma = tested on: UACC-257 melanoma
COLO 205 colon = tested on: COLO 205 colon
SF-539 CNS = tested on: SF-539 CNS
OVCAR-5 ovarian = tested on: OVCAR-5 ovarian
SK-MEL-5 melanoma = tested on: SK-MEL-5 melanoma
ACHN renal = tested on: ACHN renal
BT-549 breast = tested on: BT-549 breast
U251 CNS = tested on: U251 CNS
SF-295 CNS = tested on: SF-295 CNS
PC-3 prostate = tested on: PC-3 prostate
HCT-15 colon = tested on: HCT-15 colon
MDA-MB-435 = tested on: MDA-MB-435
MOLT-4 leukemia = tested on: MOLT-4 leukemia
OVCAR-4 ovarian = tested on: OVCAR-4 ovarian
HS 578T breast = tested on: HS 578T breast

For C=CN1CCN(c2ccccc2)P1(=O)Oc1ccccc1 (centres undefined), the TGI (T-47D breast) was over 100 µM, the TGI (NCI-H522 lung) was over 100 µM and the TGI (DU-145 prostate) was over 100 µM. It also gave a TGI (SN12C renal) of over 100 µM, a TGI (M14 melanoma) of over 100 µM and a TGI (SNB-75 CNS) of over 100 µM. The TGI (NCI-H23 lung) was over 100 µM, the TGI (A498 renal) was over 100 µM and the TGI (KM12 colon) was over 100 µM. The TGI (MALME-3M melanoma) was over 100 µM, the TGI (MDA-N) was over 100 µM and the TGI (SK-MEL-28 melanoma) was over 100 µM. The TGI (HOP-62 NSCLC) was over 100 µM, the TGI (TK-10 renal) was over 100 µM and the TGI (LOX IMVI melanoma) was over 100 µM. The TGI (OVCAR-3 ovarian) was over 100 µM, the TGI (UO-31 renal) was 92.8 µM and the TGI (MCF7 breast) was over 100 µM. For the same compound, the TGI (HCT-116 colon) was over 100 µM, the TGI (HL-60(TB) leukemia) was over 100 µM and the TGI (SF-268 CNS) was over 100 µM. It also gave a TGI (SR leukemia) of over 100 µM, a TGI (HOP-92 NSCLC) of over 100 µM and a TGI (786-0 renal) of over 100 µM. It also gave a TGI (SW-620 colon) of over 100 µM, a TGI (NCI/ADR-RES ovarian) of over 100 µM and a TGI (MDA-MB-231 breast) of over 100 µM. It also gave a TGI (SNB-19 CNS) of over 100 µM, a TGI (A549 NSCLC) of over 100 µM and a TGI (RPMI-8226 leukemia) of over 100 µM. It also gave a TGI (EKVX NSCLC) of over 100 µM, a TGI (CAKI-1 renal) of over 100 µM and a TGI (CCRF-CEM leukemia) of over 100 µM. It also gave a TGI (HT29 colon) of over 100 µM, a TGI (UACC-62 melanoma) of over 100 µM and a TGI (NCI-H226 lung) of over 100 µM. For the same compound, the TGI (HCC-2998 colon) was over 100 µM, the TGI (SK-MEL-2 melanoma) was over 100 µM and the TGI (SK-OV-3 ovarian) was over 100 µM. For the same compound, the TGI (OVCAR-8 ovarian) was over 100 µM, the TGI (IGROV1 ovarian) was over 100 µM and the TGI (NCI-H460 lung) was over 100 µM. It also gave a TGI (RXF 393 renal) of over 100 µM, a TGI (K-562 leukemia) of over 100 µM and a TGI (UACC-257 melanoma) of over 100 µM. For the same compound, the TGI (COLO 205 colon) was over 100 µM, the TGI (SF-539 CNS) was over 100 µM and the TGI (OVCAR-5 ovarian) was over 100 µM. The TGI (SK-MEL-5 melanoma) was over 100 µM, the TGI (ACHN renal) was over 100 µM and the TGI (BT-549 breast) was over 100 µM. The TGI (U251 CNS) was over 100 µM, the TGI (SF-295 CNS) was over 100 µM and the TGI (PC-3 prostate) was over 100 µM. It also gave a TGI (HCT-15 colon) of over 100 µM, a TGI (MDA-MB-435) of over 100 µM and a TGI (MOLT-4 leukemia) of over 100 µM. The TGI (OVCAR-4 ovarian) was over 100 µM and the TGI (HS 578T breast) was over 100 µM.
